The results in this text go back to patent US6187802A, “Substituted 4-arylmethylene-2-imino-2,3-dihydrothiazoles and derivatives and their pharmaceutical use” (Knoll Aktiengesellschaft, priority 1997, dated 2001).

Where a name gives a salt, the structure may show the parent alone. Read-outs that look alike come from different tables or passages of the source.

In test [1] the target is T1, dopamine (DA) reuptake sites (Rattus norvegicus, UniProt P23977).
T1 construct: Striatal tissue from the brains of male Charles River rats weighing 150-250 g; from tissue; host or cells: rat brain striatum (crude synaptosomes in A1, washed membranes in A4)
Put plainly: inhibition of [3H]dopamine uptake in vitro, striatal synaptosomes. The format is biochemical. The note with it: [3H]dopamine 2.5 nM, means of three independent determinations. The method, then:
Striatal tissue from the brains of male Charles River rats weighing 150-250 g was homogenised in ice-cold 0.32M sucrose (1:10 w/v) using a motor driven teflon pestle (difference in diameter between mortar and pestle 0.5 mm). Nuclei and cell debris were removed by centrifugation at 1,500 g at 4° C. for 10 minutes. The pellet (P1) was discarded and the supernatant centrifuged at 28,000 g at 4° C. for 10 minutes. The crude synaptosomal pellet (P2) was resuspended in Krebs-Henseleit buffer (equivalent to 4.2 mg wet weight of tissue/ml).
Crude synaptosomes were incubated in a shaking water bath at 37° C. for 15 minutes. Aliquots (150 μl; equivalent to 0.625 mg wet weight of tissue/tube) were then added to tubes containing 275 μl of Krebs-Henseleit buffer and 50 μl of Krebs-Henseleit buffer (total uptake) or 50 μl of test compound (10 concentrations ranging from 10^-11 -10^-4 M or 50 μl of GBR 12909 (10^-5 M; non-specific uptake). Uptake was initiated by the addition of 25 μl of freshly prepared [^3 H]dopamine (2.5 nM), followed by vortexing and was continued for 5 minutes at 37° C. in the shaking water bath.
Uptake was terminated by filtration under vacuum through Skatron 11735 filters using a Skatron cell harvester. Filters were then washed with 8 ml ice-cold saline. The scored filter paper discs were punched into vials, scintillation fluid added and radioactivity determined by liquid scintillation counting.
(§1) For each of the dopamine (DA) uptake, 5-hydroxytryptamine (5-HT) uptake and noradrenaline (NA) uptake inhibition tests, the percentage inhibition of specific uptake of the tritiated ligand was calculated for each concentration of test compound. Inhibition curves were then produced. The concentration which gave 50% inhibition of specific uptake (IC50) was obtained from the curve. The inhibition constant (Ki) was then calculated using the formula [formula]
(§2) in which [ligand] is the concentration of tritiated ligand used and Km is the affinity of the uptake site for the ligand. […] Values are means of three independent determinations unless otherwise indicated.

Test [2] deals with T2, 5-hydroxytryptamine (5-HT) reuptake sites (Rattus norvegicus, UniProt P31652).
T2 construct: Frontal cortical tissue from the brains of male Sprague-Dawley rats; from tissue; host or cells: rat brain frontal cortex (crude synaptosomes in A2, washed membranes in A5)
Put plainly: inhibition of [3H]5-HT uptake in vitro, frontal cortical synaptosomes. The format is biochemical. The protocol: Frontal cortical tissue from the brains of male Sprague-Dawley rats (Charles River; weight range 150-250 g) was homogenised in ice-cold 0.32M sucrose (1:10 w/v) using a motor driven teflon pestle (difference in diameter between mortar and pestle 0.5 mm). Nuclei and cell debris were removed by centrifugation at 1,500 g at 4° C. for 10 minutes. The pellet (P1) was discarded and the supernatant centrifuged at 28,000 g at 4° C. for 10 minutes. The crude synaptosomal pellet (P2) was resuspended in Krebs-Henseleit buffer (equivalent to 8.3 mg wet weight of tissue/ml).
Crude synaptosomes were incubated in a shaking water bath at 37° C. for 15 minutes. Aliquots (150 μl; equivalent to 1.25 mg wet weight of tissue/tube) were then added to tubes containing 275 μl of Krebs-Henseleit buffer and 50 μl of Krebs-Henseleit buffer (total uptake) or 50 μl of test compound (at 10 concentrations ranging from 10^-11 -10^-4 M) or 50 μl of zimeldine (10^-5 M; non-specific uptake). Uptake was initiated by the addition of 25 μl of freshly prepared [^3 H]5-HT (2 nM), followed by vortexing, and was continued for 5 minutes at 37° C. in the shaking water bath. Uptake was terminated by filtration under vacuum through Skatron 11734 filters using a Skatron cell harvester. Filters were then washed with 8 ml ice-cold saline. The scored filter paper discs were punched into vials, scintillation fluid added and radioactivity determined by liquid scintillation counting.
as §1, §2

For test [3], the target named is T3, noradrenaline (NA) reuptake sites (Rattus norvegicus, UniProt Q63380).
T3 construct: Frontal cortical tissue from the brains of male Sprague-Dawley rats; from tissue; host or cells: rat brain frontal cortex (crude synaptosomes in A3, washed membranes in A6)
Put plainly: inhibition of [3H]noradrenaline uptake in vitro, frontal cortical synaptosomes. The format is biochemical. The note with it: [3H]noradrenaline 10 nM, means of three independent determinations. The method, then: Frontal cortical tissue from the brains of male Sprague-Dawley rats (Charles River; weight range 150-250 g) was homogenised in ice-cold 0.32M sucrose (1:10 w/v) using a motor driven teflon pestle (difference in diameter between mortar and pestle 0.5 mm). Nuclei and cell debris were removed by centrifugation at 1,500 g at 4° C. for 10 minutes. The pellet (P1) was discarded and the supernatant centrifuged at 28,000 g at 4° C. for 10 minutes. The crude synaptosomal pellet (P2) was resuspended in Krebs-Physiological buffer (equivalent to 16.7 mg wet weight of tissue/ml).
Crude synaptosomes were incubated in a shaking water bath at 37° C. for 15 minutes. Aliquots (150 μl; equivalent to 2.5 mg wet weight of tissue/tube) were then added to tubes containing 275 μl of Krebs-Physiological buffer and 50 μl of Krebs-Physiological buffer (total uptake) or 50 μl of test compound (at 10 concentrations ranging from […]) or 50 μl of desipramine (10^-5 M; non-specific uptake). Uptake was initiated by the addition of 25 μl of freshly prepared [^3 H]noradrenaline (10 nM), followed by vortexing and was continued for 5 minutes at 37° C. in the shaking water bath. Uptake was terminated by filtration under vacuum through Whatman GF/B filters using a Brandel cell harvester. Filters were then washed with 8 ml ice-cold saline. The scored filter paper discs were placed into vials, scintillation fluid added and radioactivity determined by liquid scintillation counting.
as §1, §2

Test [4] concerns the target T3, noradrenaline (NA) reuptake sites. Put plainly: displacement of [3H]nisoxetine from noradrenaline reuptake sites, frontal cortical membranes. The note with it: 10^-6 M test compound, [3H]nisoxetine 0.6 nM, one test only, read-out: NA uptake (% displacement of specific binding of tritiated ligand). The method, boiled down: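 Washed male rat frontal cortex membranes in 50 mM Tris pH 7.4, 300 mM NaCl, 5 mM KCl, incubated 4 h at 4 °C with 0.6 nM [3H]nisoxetine and test compound at 10^-6 M; mazindol (1 μM) defined non-specific binding. Filtration, scintillation counting; % displacement of specific binding, single test.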
On the technique in general: In a radioligand displacement assay an active substance lowers the binding of a labelled ligand.

Test [5] deals with T2, 5-hydroxytryptamine (5-HT) reuptake sites. As to the kind of experiment: displacement of [3H]paroxetine from 5-HT reuptake sites, frontal cortical membranes. The format is binding. The note with it: 10^-6 M test compound, [3H]paroxetine 30 pM, one test only, read-out: 5-HT uptake (% displacement of specific binding of tritiated ligand). The method, boiled down:
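Rat frontal cortex membranes (male, 150-250 g; 2 mg wet tissue/tube) in 50 mM Tris-HCl pH 7.5 with 120 mM NaCl and 5 mM KCl, incubated 2 h at 22 °C with 30 pM [3H]paroxetine and compound at 10^-6 M. Citalopram 1 μM defined non-specific binding; values are % displacement of specific binding from a single test, filtration and scintillation counting.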

Test [6] has as its target T1, dopamine (DA) reuptake sites. As to the kind of experiment: displacement of [3H]GBR 12935 from dopamine reuptake sites, striatal membranes. The format is binding. The note with it: 10^-6 M test compound, [3H]GBR 12935 1 nM, one test only, read-out: DA uptake (% displacement of specific binding of tritiated ligand). The method, boiled down:
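Rat striatal membranes (male rats, 150-250 g) incubated 90 min at 4 °C with 1 nM [3H]GBR 12935 in 50 mM Tris-HCl pH 7.4, 200 mM NaCl, 5 mM KCl; non-specific binding with 1 μM mazindol. Filtration, scintillation counting; value is % displacement of specific binding at 10^-6 M, single test; IA means <50%.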

T3 sequence (Q63380 1-617): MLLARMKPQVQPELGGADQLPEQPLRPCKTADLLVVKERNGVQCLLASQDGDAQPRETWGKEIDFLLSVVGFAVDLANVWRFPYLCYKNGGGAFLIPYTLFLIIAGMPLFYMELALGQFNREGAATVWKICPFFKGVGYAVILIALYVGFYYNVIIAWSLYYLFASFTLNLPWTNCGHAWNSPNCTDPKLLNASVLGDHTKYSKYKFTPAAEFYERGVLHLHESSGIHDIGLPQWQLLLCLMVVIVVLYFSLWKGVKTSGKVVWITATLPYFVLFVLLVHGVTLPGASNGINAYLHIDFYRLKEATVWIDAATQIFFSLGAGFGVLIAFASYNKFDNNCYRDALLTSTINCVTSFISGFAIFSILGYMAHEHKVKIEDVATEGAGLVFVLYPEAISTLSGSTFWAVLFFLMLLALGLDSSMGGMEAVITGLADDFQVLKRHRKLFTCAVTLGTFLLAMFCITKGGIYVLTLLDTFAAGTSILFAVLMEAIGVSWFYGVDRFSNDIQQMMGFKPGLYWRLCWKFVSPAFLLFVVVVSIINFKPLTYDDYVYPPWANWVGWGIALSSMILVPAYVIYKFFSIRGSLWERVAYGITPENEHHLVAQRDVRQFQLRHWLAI
T1 sequence (P23977 whole entry): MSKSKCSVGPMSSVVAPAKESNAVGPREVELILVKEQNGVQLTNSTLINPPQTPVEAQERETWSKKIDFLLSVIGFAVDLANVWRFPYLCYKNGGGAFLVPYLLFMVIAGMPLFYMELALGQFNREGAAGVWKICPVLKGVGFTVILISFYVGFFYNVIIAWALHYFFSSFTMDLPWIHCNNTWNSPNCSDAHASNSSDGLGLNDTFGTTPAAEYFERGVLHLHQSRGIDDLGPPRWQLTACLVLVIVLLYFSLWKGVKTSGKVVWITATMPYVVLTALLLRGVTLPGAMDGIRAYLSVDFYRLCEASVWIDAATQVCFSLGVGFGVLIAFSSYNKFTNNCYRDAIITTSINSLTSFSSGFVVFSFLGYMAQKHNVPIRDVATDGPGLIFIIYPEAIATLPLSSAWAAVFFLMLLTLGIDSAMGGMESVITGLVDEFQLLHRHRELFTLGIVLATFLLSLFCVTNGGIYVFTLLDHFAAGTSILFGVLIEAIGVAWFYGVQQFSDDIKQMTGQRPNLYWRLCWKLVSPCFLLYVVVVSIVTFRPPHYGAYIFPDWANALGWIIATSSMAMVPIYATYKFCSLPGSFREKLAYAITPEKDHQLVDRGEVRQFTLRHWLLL
T2 sequence (P31652 whole entry): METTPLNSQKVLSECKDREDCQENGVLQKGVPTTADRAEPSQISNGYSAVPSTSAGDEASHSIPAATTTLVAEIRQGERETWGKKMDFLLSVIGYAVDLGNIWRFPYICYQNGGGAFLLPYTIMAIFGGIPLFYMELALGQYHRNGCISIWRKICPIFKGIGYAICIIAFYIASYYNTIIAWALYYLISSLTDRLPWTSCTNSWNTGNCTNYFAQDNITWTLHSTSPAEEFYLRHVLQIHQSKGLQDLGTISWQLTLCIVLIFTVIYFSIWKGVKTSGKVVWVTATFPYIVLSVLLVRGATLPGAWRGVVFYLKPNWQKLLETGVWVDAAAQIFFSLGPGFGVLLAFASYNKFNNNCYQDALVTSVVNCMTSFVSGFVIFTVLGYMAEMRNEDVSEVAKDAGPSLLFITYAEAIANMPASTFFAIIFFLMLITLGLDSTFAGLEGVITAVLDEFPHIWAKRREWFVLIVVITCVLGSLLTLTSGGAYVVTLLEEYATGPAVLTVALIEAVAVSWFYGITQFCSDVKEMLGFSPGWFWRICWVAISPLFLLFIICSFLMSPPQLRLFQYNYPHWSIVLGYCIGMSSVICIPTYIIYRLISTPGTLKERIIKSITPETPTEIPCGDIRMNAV

A word on the Ki: it is a measure of affinity in units of concentration, obtained from inhibition or displacement. Take `Clc1ccc(C2(C3=CSC4=NCCN34)CCC2)cc1` [Example 3, 3-[1-(4-chlorophenyl)cyclobutyl]-5,6-dihydroimidazo-[2,1-b]thiazole hydrobromide]: the Ki was determined as 79 nM in test [1], 795 nM in test [2] and 22 nM in test [3].

For `Clc1ccc(C2(C3=CSC4=NCCCN34)CCC2)cc1` [Example 2, 3-[1-(4-chlorophenyl)cyclobutyl]-6,7-dihydro-5H-thiazolo[3,2-a]pyrimidine hydrobromide], the Ki in test [1] came out at 104 nM; in test [2], 782 nM; in test [3], 261 nM.

Turning to `C1=C(C2(c3ccc4ccccc4c3)CCC2)N2CCN=C2S1` [Example 5, 3-[1-(2-naphthyl)cyclobutyl]-5,6-dihydroimidazo[2,1-b]thiazole hydrobromide], the inhibition constant Ki in test [1] was 5.9 nM; in test [2], 25 nM; in test [3] it was 4.4 nM.

Regarding `Clc1ccc(C2(C3=CSC4=NCCN34)CCC2)cc1Cl` [Example 1, 3-[1-(3,4-dichlorophenyl)cyclobuty]-5,6-dihydroimidazo[2,1-b]thiazole hydrobromide], the inhibitory constant (Ki) in test [1] turned out to be 9.2 nM; in test [2] (rat frontal cortical synaptosomes, [3H]5-HT 2 nM, means of three independent determinations, read-out: 5-HT uptake (Ki)) it was 120 nM; in test [3], 34 nM.

Turning to `Clc1ccc(C2(C3=CSC4=NCCCN34)CCC2)cc1Cl` [Example 4, 3-[1-(3,4-dichlorophenyl)cyclobutyl]-6,7-dihydro-5H-thiazolo[3,2-a]pyrimidine hydrobromide], the Ki in test [1] worked out at 9.5 nM; in test [2] it was 137 nM; in test [3], 15 nM.

Take `c1ccc(CCN=c2scc(C3(c4ccc5ccccc5c4)CCC3)n2CCc2ccccc2)cc1` [Example 46, 4-1-(2-Naphthyl)cyclobutyl]-3-phenethyl-2-phenethylimino-2,3-dihydrothiazole hydrobromide]: the results for the inhibition at 1 µM in test [4], in test [5] and in test [6] were below 50%, 51% and 98%, respectively.

Consider `c1ccc2cc(C3(c4csc(=NCC5CC5)n4CC4CC4)CCC3)ccc2c1` [Example 43, 3-Cyclopropylmethyl-2-cyclopropylmethylimino4-[1-(2-naphthyl)cyclobutyl]-2,3-dihydrothiazole hydrobromide], for which the inhibition at 1 µM turned out to be 93% in test [4], 101% in test [5] and 113% in test [6].

Take `Cc1ccccc1N=c1scc(C2(c3ccc4ccccc4c3)CCC2)n1-c1ccccc1C` [Example 51, 4-[1-(2-Naphthyl)cyclobutyl)-3-(o-tolyl)-2-(o-tolylimino)-2,3-dihydrothiazole hydrobromide]: the inhibition at 1 µM was below 50% in test [4], 54% in test [5] and 69% in test [6].

Take `CN=c1scc(C2(c3ccc(Cl)c(Cl)c3)CCC2)n1C` [Example 14, 4-[1-(3,4-Dichlorophenyl)cyclobutyl]-3-methyl-2-methylimino-2,3 dihydrothiazole hydrobromide]: the inhibition at 1 µM amounted to 80% in test [4], 96% in test [5] and 103% in test [6].
